Results on one molecule are retold here after patent US9309247B2, “2-substituted imidazo[4,5-D]phenanthroline derivatives and their use in the treatment of cancer” (Aptose Biosciences Inc., priority 2013, dated 2016).

Test [1] concerns human pancreatic cells BXPC3. Kind of test: XTT cell proliferation assay, BXPC3. Format: cell-based. Particulars: 5 days incubation, read-out: Antiproliferative activity, Pancreas BXPC3. On the procedure: (§1) Exemplary compounds 1-8 were tested for anti-cancer activity in vitro using human renal cancer cells (ACHN and CAK-1), human pancreatic cells (BXPC3 and SU-86-86), human prostate cancer cell (DU14), human colon carcinoma cells (HT-29 and KM-12), leukemia cells (HL60), brain cancer/tumour cells (SK-A-AS, U87-MG), and human non-small cell lung cancer cells (H460). Compounds 1-8 are the specific embodiments of Formula (I) and Formula (IV) as described above in this application.
(§2) The cells were maintained as a monolayer in a growth medium; McCoy's 5A modified medium (Sigma, St. Louis, Mo.), supplemented with 2 mM L-glutamine (Gibco, Grand Island, N.Y.), 10% fetal bovine serum (FBS) (Multicell, WISENT Inc. St-Bruno, QC), antibiotic-antimycotic (Multicell), at 37° C. in a 5% CO2-humidified incubator. Cells were transferred onto 150 mm tissue culture plates and grown until sub-confluency (70-80%) prior to their use. The in vitro antiproliferative activity of compounds was evaluated by incubating the cells with varying concentrations of exemplary compounds as shown in Table 1 for 5 days. The efficacy of these compounds in this cell proliferation assay was measured based in the ability of live cells to reduce the tetrazolium salt XTT to orange colored compounds of formazan (XTT cell proliferation kit IT, Roche Applied Science, Montreal, QC).

Test [2] deals with human prostate cancer cell DU14. Kind of test: XTT cell proliferation assay, DU14. The class given is cell-based. Particulars: 5 days incubation, read-out: Antiproliferative activity, Pros. DU14. How it is done:
as §1, §2
In general terms: Tetrazolium assays rely on reduction of a dye to a coloured formazan, in cell work by metabolically active cells.

Test [3] has as its system human colon carcinoma cells KM12. Kind of test: XTT cell proliferation assay, KM12. Format: cell-based. The settings on record: 5 days incubation, read-out: Antiproliferative activity, Colon KM12. On the procedure: as §1, §2
The test system of test [4] is human colon carcinoma cells HT-29. In words: XTT cell proliferation assay, HT-29. Format: cell-based. The settings on record: 5 days incubation, read-out: Antiproliferative activity, Colon HT-29. How it is done: as §1, §2
Another test concerns leukemia cells HL60. In words: XTT cell proliferation assay, HL60. Format: cell-based, human. Particulars: 5 days incubation, read-out: Antiproliferative activity, Leuk. HL60. How it is done: as §1, §2
Test [5] relates to brain cancer/tumour cells SK-N-AS. Kind of test: XTT cell proliferation assay, SK-N-AS. Format: cell-based, human. The settings on record: 5 days incubation, read-out: Antiproliferative activity, Brain SK-N-AS. How it is done:
as §1, §2

In test [6] the test system is brain cancer/tumour cells U87-MG. In words: XTT cell proliferation assay, U87-MG. The class given is cell-based, human. The settings on record: 5 days incubation, read-out: Antiproliferative activity, Brain U87-MG. On the procedure:
as §1, §2

The test system of test [7] is human non-small cell lung cancer cells H460. Kind of test: XTT cell proliferation assay, H460. The class given is cell-based. Particulars: 5 days incubation, read-out: Antiproliferative activity, NSCLC H460. On the procedure:
as §1, §2

Test [8] relates to human Burkitt's lymphoma Ramos cells. Kind of test: Cell growth inhibition assay, Ramos. Format: cell-based. Particulars: five days of incubation, XTT; read-out: IC50 Ramos (hs). On the procedure: (§3) In this study, compounds 1-8 were screened in vitro against a panel of four mouse lymphoma cell lines and two human lymphoma cell line for cell growth inhibition activity. Following treatment, half maximal inhibitory concentrations (IC50) were determined with the objective of selecting the most efficacious compounds for evaluation of in vitro absorption, distribution, metabolism, and excretion (ADME) screening.
(§4) Similarly, human Burkitt's lymphoma Ramos cells (ATCC CRL-1596) were grown in suspension in Roswell Park Memorial Institute (RPMI) 1640 medium supplemented with 10% fetal bovine serum (FBS), 10 mM HEPES KOH pH 7.4, and 2 mM sodium pyruvate. Mouse P388D1 (ATCC CCL-46) and WR19L (ATCC TIB-52) cells were grown in suspension in Dulbecco's Modified Eagle Medium (DMEM) with 10% fetal bovine serum (FBS), 10 mM HEPES, and 2 mM sodium pyruvate. Mouse WEHI231 (ATCC CRL-1702) and EL4 (ATCC TIB-39) cells were grown in suspension in DMEM with 10% fetal bovine serum (FBS), 10 mM HEPES KOH pH 7.4, 2 mM sodium pyruvate, and 0.05 mM β-mercaptoethanol. All cells were maintained at 37° C. in an atmosphere of 5% CO2 in air. Logarithmically growing cells were routinely sub-cultured twice weekly. Briefly, cells were collected by centrifugation, resuspended in pre-warmed media, and diluted 1:10 into a 75 cm^2 flask.
(§5) Cells were subcultured and 4×10^3 cells (in 50 μL) were transferred to each well in a Falcon 96-well tissue culture plate. Exemplary compounds were dissolved in pure dimethyl sulphoxide (DMSO) at a concentration of 10 mM. From this 10 mM stock solution, 12 successive serial dilutions were made in DMSO (2.5 fold dilutions), ranging from 0.52 μM to 10 mM. Using these stock dilutions, 5 μL of each were added to 500 μL of media, and 50 μL of this was added to the cells. The final concentrations being tested ranged from 0.0026 μM to 50 μM. Each concentration was tested in triplicate, and DMSO and untreated cells were also included as controls. After five days of incubation with the compounds, cell viability was determined using the XTT cell proliferation kit (Roche, Cat. No. 11 465 015 001). Following the XTT protocol, 4.5-24 hours after addition of the reagent, the plates were read in a μQuant 96-well plate spectrophotometer (Biotek Instruments Inc.) and the results analyzed to determine the IC50.

For test [9], the system named is WEHI 231 (mouse, B-cell lymphoma). Kind of test: Cell growth inhibition assay, WEHI231. The class given is cell-based. Particulars: five days of incubation, XTT; read-out: IC50 WEHI231 (ms). How it is done:
as §3, §4, §5

In test [10] the test system is human colon adenocarcinoma cells HT-29. Kind of test: Colon carcinoma (HT-29) xenograft model. The class given is in vivo, CD-1 female nude mice. The settings on record: 50 mg/kg/d, five days on, 2 day break, 5 weeks, vs vehicle-treated control, FIG. 1. How it is done: (§6) The ability of compound 1 to inhibit colon tumour growth in vivo was tested as follows. CD-1 female nude mice (7 mice per treatment group, 6-7 weeks) were injected […] with human colon adenocarcinoma cells HT-29 cells (3×10^6 cells in 0.1 ml PBS). Treatment of the mice with vehicle or 50 mg/kg/d of […] was initiated 5 days post-inoculation (size of tumours=20-40 mm^3) for 7-day cycles of five days followed by a 2 day break for 5 weeks. The size of the tumours was measured over the course of the experiment using calipers, and the weight of the tumours was measured after the animals were sacrificed.

Test [11] concerns colon carcinoma SW-620 cells. Kind of test: Colon carcinoma (SW-620) xenograft model. Format: in vivo, CD-1 female nude mice. Particulars: vs vehicle-treated control, FIG. 3. On the procedure:
as §6
Similar tests were conducted with colon carcinoma KM-12 cells and colon carcinoma SW-620 cells.

Test [12] deals with non small cell lung cancer (H460). Kind of test: Non small cell lung cancer (H460) xenograft model. Format: in vivo, CD-1 female nude mice. Particulars: large-cell lung carcinoma H460; vs vehicle-treated control; FIG. 6. On the procedure:
as §6
The ability of compound 1 to inhibit renal cell carcinoma growth (see FIG. 4), to inhibit pancreatic carcinoma growth (FIG. 5), to inhibit large-cell lung carcinoma cell growth (FIG. 6), and to inhibit Glioblastoma cell growth (FIG. 7) was also tested following the general procedure as discussed above.

`FC1(F)Oc2ccc(-c3nc4c5cccnc5c5ncccc5c4[nH]3)cc2O1` [Compound 1]: the IC50 in test [1] amounted to 180 nM; in test [2] it was 170 nM; in test [3], 330 nM; in [4], 350 nM; in the test with leukemia cells HL60, 30 nM; in test [5], 210 nM. Also, the IC50 was found to be 190 nM in test [6], 160 nM in test [7], 163 nM in [8] and 5.2 nM in [9]. Moreover, the “inhibition of tumour growth, as measured by tumour size” value in test [10], in test [11] and in test [12] was “able to inhibit tumour growth” in each case.
